In patent US7915292B2, “Antibacterial quinoline derivatives” (Janssen Pharmaceutica NV, priority 2005, dated 2011):

Each molecule was assayed on Mycobacterium tuberculosis (strain H37RV) (assay: In-vitro method for testing compounds against M. tuberculosis (resazurin growth inhibition)). Settings: 7 days incubation.
Type: cell-based

Compound	M. tuberculosis pIC50
Cc1ccc2nc(-c3ccccc3)c(C(c3ccccc3)N(CC(=O)N3CCC(Cc4ccccc4)CC3)Cc3ccccc3)cc2c1 (stereo not shown) [Compound 79]	5.7
Cc1ccc2nc(-c3ccccc3)c(C(c3ccccc3)N(CC(=O)N3Cc4ccccc4C3)Cc3ccccc3)cc2c1 (stereo not shown) [Compound 73]	4.5

Each molecule was assayed on M. Smegmatis ATCC607 (assay: In-vitro anti-bacterial activity against strain M. smegmatis ATCC607 (Alamar Blue growth inhibition)). Settings: 48 hours incubation.
Type: cell-based
Description: Serial five-fold dilutions (45 μl in 180 μl) were made directly in the microtiter plates from column 2 to 11 using a customised robot system (Zymark Corp., Hopkinton, Mass.). Pipette tips were changed after every 3 dilutions to minimize pipetting errors with high hydrophobic compounds. Untreated control samples with (column 1) and without (column 12) inoculum were included in each microtiter plate. Approximately 250 CFU per well of bacteria inoculum, in a volume of 100 μl in 2.8× Mueller-Hinton broth medium, was added to the rows […]. The same volume of broth medium without inoculum was added to column 12 in row A to H. The cultures were incubated at 37° C. for 48 hours in a humidified 5% CO2 atmosphere (incubator with open air valve and continuous ventilation). At the end of incubation, two days after inoculation, the bacterial growth was quantitated fluorometrically. Therefore Alamar Blue (10×) was added to all wells in a volume of 20 μl and plates were incubated for another 2 hours at […] The fluorescence was read in a computer-controlled fluorometer (Cytofluor, Biosearch) at an excitation wavelength of 530 nm and an emission wavelength of 590 nm (gain 30). The percentage growth inhibition achieved by the compounds was calculated according to standard methods and expressed as pIC50 values.

Compound	M. smegmatis pIC50
Cc1ccc2nc(-c3ccccc3)c(C(c3ccccc3)N(CC(=O)NC3CCCCC3)Cc3ccccc3)cc2c1 (stereo not shown) [Compound 43]	5.2
O=C(CN(Cc1ccccc1)C(c1ccccc1)c1cc2ccccc2nc1-c1ccccc1)N1CCSCC1 (stereo not shown) [Compound 127]	6.5
COc1nc2ccc(Br)cc2cc1C(c1ccccc1)N(C)CC(=O)N1CCCC1 (stereo not shown) [Compound 80]	5.1
O=C(CN(Cc1ccccc1)C(c1cc2ccccc2o1)c1cc2ccccc2nc1-c1ccccc1)N1CCCC1 (stereo not shown) [Compound 57]	5.9
COc1nc2ccc(Br)cc2cc1C(c1ccccc1)N(CC(=O)N1CCSCC1)Cc1cccc2ncccc12 (stereo not shown) [Compound 115]	4.8
COc1nc2ccc(Br)cc2cc1C(c1ccccc1)N(C)CC(=O)N(C)CCN(C)C (stereo not shown) [Compound 8]	5.1
COc1nc2ccc(Br)cc2cc1C(c1ccccc1)N(C)CC(=O)N1CC(C)OC(C)C1 (stereo not shown) [Compound 87]	5.1
CCN(Cc1ccncc1)C(=O)CN(C)C(c1ccccc1)c1cc2cc(Br)ccc2nc1OC (stereo not shown) [Compound 12]	5.1
Cc1ccc2nc(-c3ccccc3)c(C(c3ccccc3)N(CC(=O)NCC3CC3)Cc3ccccc3)cc2c1 (stereo not shown) [Compound 42]	5.8
COc1nc2ccc(Br)cc2cc1C(c1ccccc1)N(CC(=O)N1CCOCC1)Cc1ccco1 (stereo not shown) [Compound 101]	4.9
COc1nc2ccc(Br)cc2cc1C(c1ccccc1)N(C)CC(=O)N1CCN(C)CC1 (stereo not shown) [Compound 89]	5
CNC(=O)CN(Cc1ccccc1)C(c1ccccc1)c1cc2cc(C)ccc2nc1-c1ccccc1 (stereo not shown) [Compound 40]	5.6
Cc1ccc2nc(-c3ccccc3)c(C(c3ccccc3)N(C)CC(=O)N3CCOCC3)cc2c1 (stereo not shown) [Compound 63]	5.1
COc1nc2ccc(Br)cc2cc1C(c1ccccc1)N(C)CC(=O)N(C)CC#N (stereo not shown) [Compound 7]	4.9
Cc1ccc2nc(-c3ccccc3)c(C(c3ccccc3)N(C)CC(=O)N3CCN(C)CC3)cc2c1 (stereo not shown) [Compound 62]	5.1
COc1nc2ccc(Br)cc2cc1C(c1ccccc1)N(C)CC(=O)N(C)CCCN(C)C (stereo not shown) [Compound 9]	5
Cc1ccc2nc(-c3ccccc3)c(C(c3ccccc3)N(C)CC(=O)N(C)C)cc2c1 (stereo not shown) [Compound 39]	4.5
COc1nc2ccc(Br)cc2cc1C(c1ccccc1)N(C)CCCN(C)C (stereo not shown) [Compound 27]	5.5
COc1nc2ccc(Br)cc2cc1C(c1ccccc1)N(C)CC(=O)N1CCCCC1 (stereo not shown) [Compound 82]	4.4
COc1nc2ccc(Br)cc2cc1C(c1ccccc1)N(CC(=O)N1CCOCC1)Cc1ccccn1 (stereo not shown) [Compound 110]	5.2

Compound	M. smegmatis pIC50
COc1nc2ccc(Br)cc2cc1C(c1ccccc1)N(CC(=O)N1CCOCC1)Cc1cccc2ncccc12 (stereo not shown) [Compound 116]	5.3
COc1nc2ccc(Br)cc2cc1C(c1ccccc1)N(C)CC(=O)N(C)c1ccccc1C (stereo not shown) [Compound 10]	4.7
COc1nc2ccc(Br)cc2cc1C(c1ccccc1)N(CCCN(C)C)CCCN(C)C (stereo not shown) [Compound 28]	5.1
CCCCN(C)C(=O)CN(C)C(c1ccccc1)c1cc2cc(Br)ccc2nc1OC (stereo not shown) [Compound 6]	5.1
COc1nc2ccc(Br)cc2cc1C(c1ccccc1)N(C)CC(=O)N1CCN(Cc2ccccc2)CC1 (stereo not shown) [Compound 91]	4.1
COc1nc2ccc(Br)cc2cc1C(c1ccccc1)N(C)CC(=O)N1CCCN(C)CC1 (stereo not shown) [Compound 84]	5.1
COc1nc2ccc(Br)cc2cc1C(c1ccccc1)N(CC(=O)N1CCSCC1)Cc1ccnc2ccccc12 (stereo not shown) [Compound 117]	4.3
COc1nc2ccc(Br)cc2cc1C(c1ccccc1)N(C)CC(=O)N1Cc2ccccc2C1 (stereo not shown) [Compound 95]	4.9
COc1nc2ccc(Br)cc2cc1C(c1ccccc1)N(C)CC(=O)N1CC=CCC1 (stereo not shown) [Compound 85]	5.1
COc1nc2ccc(Br)cc2cc1C(c1ccccc1)N(CC(=O)N1CCOCC1)Cc1ccnc2ccccc12 (stereo not shown) [Compound 118]	5.6
CCOC(=O)CN(Cc1ccccn1)C(c1ccccc1)c1cc2cc(Br)ccc2nc1OC (stereo not shown) [Compound 139]	4.3
COc1nc2ccc(Br)cc2cc1C(c1ccccc1)N(C)CC(=O)N(C)C (stereo not shown) [Compound 4]	5.1
CCOC(=O)CN(Cc1ccoc1)C(c1ccccc1)c1cc2cc(Br)ccc2nc1OC (stereo not shown) [Compound 136]	4.4
COc1nc2ccc(Br)cc2cc1C(c1ccccc1)N(C)CCN(C)C (stereo not shown) [Compound 1]	5.1
COc1nc2ccc(Br)cc2cc1C(c1ccccc1)N(CC(=O)N1CCN(C)CC1)Cc1ccnc2ccccc12 (stereo not shown) [Compound 119]	5.5
COc1nc2ccc(Br)cc2cc1C(c1ccccc1)N(CC(=O)N(C)C)Cc1ccccc1 (stereo not shown) [Compound 24]	5.1
COc1nc2ccc(Br)cc2cc1C(c1ccccc1)N(CC(=O)N(C)C)Cc1ccnc2ccccc12 (stereo not shown) [Compound 26]	5.7
COc1nc2ccc(Br)cc2c(Cl)c1C(c1ccccc1)N(C)CC(=O)N1CCOCC1 (stereo not shown) [Compound 96]	5.2
O=C(CN(Cc1ccccc1)C(c1ccccc1)c1cc2ccccc2nc1-c1ccccc1)N1CCCCC1 (stereo not shown) [Compound 126]	6.4
COCCN(CCOC)C(=O)CN(Cc1ccccc1)C(c1ccccc1)c1cc2cc(C)ccc2nc1-c1ccccc1 (stereo not shown) [Compound 50]	5.8

Compound	M. smegmatis pIC50
COc1nc2ccc(Br)cc2cc1C(c1ccccc1)N(CC(=O)N1CCOCC1)C(C)C (stereo not shown) [Compound 98]	5.3
COc1nc2ccc(C)cc2cc1C(c1ccccc1)N(CCC(=O)N1CCOCC1)Cc1ccccc1 (stereo not shown) [Compound 60]	5.3
COc1nc2ccc(Br)cc2cc1C(c1ccccc1)N(C)CC(=O)N(CCC#N)Cc1cccnc1 (stereo not shown) [Compound 14]	5.2
COc1nc2ccc(Br)cc2c(Cl)c1C(c1ccccc1)N(C)CC(=O)N(C)C (stereo not shown) [Compound 15]	4.8
COc1nc2ccc(Br)cc2cc1C(c1ccccc1)N(CC(=O)N(C)C)Cc1cccc2ncccc12 (stereo not shown) [Compound 25]	5.4
Cc1ccc2nc(-c3ccccc3)c(C(c3ccccc3)N(CC(=O)NN3CCOCC3)Cc3ccccc3)cc2c1 (stereo not shown) [Compound 44]	5.1
COc1nc2ccc(Br)cc2cc1C(c1ccccc1)N(C)CC(=O)N1CCOCC1 (stereo not shown) [Compound 86]	4.9
COCCN(CCOC)C(=O)CN(C)C(c1ccccc1)c1cc2cc(Br)ccc2nc1OC (stereo not shown) [Compound 13]	4.6
O=C(CN(Cc1ccccc1)C(c1cccnc1)c1cc2ccccc2nc1-c1ccccc1)N1CCSCC1 (stereo not shown) [Compound 56]	5.8
COc1nc2ccc(Br)cc2cc1C(c1ccccc1)N(CC(=O)N1CCSCC1)Cc1ccc2ccccc2n1 (stereo not shown) [Compound 113]	4.5
COc1nc2ccc(Br)cc2cc1C(c1ccccc1)N(C)CC(=O)N(C)C(C)C (stereo not shown) [Compound 5]	5.1
CN(C)C(=O)CN(Cc1ccccc1)C(c1ccccc1)c1cc2ccccc2nc1-c1ccccc1 (stereo not shown) [Compound 32]	5.7
COc1nc2ccc(Br)cc2cc1C(c1ccccc1)N(C)CC(=O)N1CCN(c2ccccn2)CC1 (stereo not shown) [Compound 92]	5.1
COc1nc2ccc(Br)cc2cc1C(c1ccccc1)N(C)CC(=O)N1CCSC1 (stereo not shown) [Compound 81]	5
CC(C)N(C)C(=O)CN(Cc1ccccc1)C(c1ccccc1)c1cc2ccccc2nc1-c1ccccc1 (stereo not shown) [Compound 33]	6.5
CNC(=O)CN(C)C(c1ccccc1)c1cc2cc(C)ccc2nc1-c1ccccc1 (stereo not shown) [Compound 38]	4.5
CN(C)C(=O)CN(Cc1ccccc1)C(c1cc2ccccc2o1)c1cc2ccccc2nc1-c1ccccc1 (stereo not shown) [Compound 35]	5.6
O=C(CN(Cc1ccccc1)C(c1cc2ccccc2o1)c1cc2ccccc2nc1-c1ccccc1)N1CCSCC1 (stereo not shown) [Compound 58]	6.1

Same assay, conditions: Mycolicibacterium smegmatis, 48 hours incubation, read-out: M. smegmatis pIC50 (converted)

Compound	IC50 [µM]
CCN(CC)CCN(C)C(c1ccccc1)c1cc2cc(Br)ccc2nc1OC (stereo not shown) [Compound 2]	2
COc1nc2ccc(Br)cc2cc1C(c1ccccc1)N(C)CC(=O)N1CCC(C)CC1 (stereo not shown) [Compound 83]	2.51
Cc1ccc2nc(-c3ccccc3)c(C(c3ccccc3)N(C)CCN(C)C)cc2c1 (stereo not shown) [Compound 37]	20
CC(C)N(C)C(=O)CN(Cc1ccccc1)C(c1ccccc1)c1cc2cc(Br)ccc2nc1Oc1ccccc1 (stereo not shown) [Compound 30]	0.631
CCOC(=O)CN(Cc1ccccc1)C(c1cccnc1)c1cc2ccccc2nc1-c1ccccc1 (stereo not shown) [Compound 129]	1.58
COc1nc2ccc(Br)cc2cc1C(c1ccccc1)[N+]([O-])(CC(=O)N1CCOCC1)Cc1ccccc1 (stereo not shown) [Compound 154]	3.98
CC(C)N(C)C(=O)CN(Cc1ccccc1)C(c1cc2ccccc2o1)c1cc2ccccc2nc1-c1ccccc1 (stereo not shown) [Compound 36]	0.316
